Measured values from patent US5994303A, “Use of insulin and IGF-I” (Chiron Corporation, priority 1994, dated 1999).
“Also recorded” adds a separate entry of the source.

Columns and labels:
[1] = tested on: Male Sprague-Dawley rats; assay: Example 2: dexamethasone-treated rats infused with insulin, rhGH, rhIGF-I and combinations; feed intake, nitrogen digestion and retention, serum urea; assay type: in vivo, rat; settings: for Feed intake / feed consumption (in words) / Nitrogen balance / nitrogen wasting induced by dexamethasone (in words) / Relative nitrogen retention (retained N/digested N x 100): 8 days infusion; for Nitrogen balance / nitrogen wasting induced by dexamethasone (in words): Dex 26 ug/day with or without peptides; for Relative nitrogen retention (retained N/digested N x 100): Dex 26 ug/day with peptides: insulin 39, rhGH 360, rhIGF-I 500 ug/day, mean, pooled SE
Protocol: On day zero the rats were anaesthetized intraperitoneally with 0.4 ml per 100 g body weight of a mixture of Rompun (20 mg·ml^-1), Ketalar (50 mg·ml^-1) and Saline (0.9%) in 1:2:3 volume proportions. The hair on the back of the rats was shaved off and the exposed skin carefully washed with 0.05% chlorhexidine (Pharmacia, Stockholm, Sweden) and 0.4% jodopax (Molnlycke, Goteborg, Sweden), both being diluted in 70% alcohol.
Two mutually parallel incisions, each of 15 mm in length, were then made along the dorsal midline. The incisions penetrated the epidermis, dermis and subcutaneous muscle but left the deep fascia intact. Two subcutaneous pockets were made on both sides of the incisions by separating the subcutaneous muscle from the deep fascia. One (Exp. I) or two (Exp. 2) mini-pumps were implanted in each pocket. The wounds were closed with sutures 4-0 Johnson & Johnson).
Osmotic mini-pumps (Alzet 2001, Alza Corporation, Palo Alto, USA) releasing 1 μl·h^-1 for 8 days were used for continuous delivery of hormones and Dex to the animals. The pumps were filled to a volume of 0.22 ml with solutions of rhGH (14.4 mg·ml^-1, Genotropin®, Pharmacia), rhIGF-I (20 mg·ml^-1, Igef®, Pharmacia, Kabi Peptide Hormones, Stockholm, Sweden), insulin (1.57 mg/ml, Actrapid®, Novo, Copenhagen, Denmark), Dex (1.04 mg·ml^-1, Decadron, Merck Sharp & Dohme International, Rathway, USA) or Saline (0.9%). Two (Example 1) or four (Example 2) pumps combined as described above were implanted in each rat. Implantation of the pumps was performed under strictly aseptic conditions.
Total feed intake was registered throughout the full 8 day experimental period. Urine and faeces were collected daily, pooled and kept at -20° C. until analysed. Excreta was collected by housing the animals in individual metabolism cages that were specially designed for the separation of urine and faeces. In order to inhibit urease-activity in the urine, 1 ml of 5% sulphuric acid was pipetted every morning in the collection vessels. The 24 hour collections of urine were pooled individually for each treatment period and immediately frozen after the collection. Similarly, the samples of faeces were also pooled individually for each treatment period and kept frozen (-20° C.) until analysis.
Blood samples were taken on day zero and on the last day of the experiment. During anaesthesia, blood was withdrawn quickly from the orbital plexus by using a glass capillary. On each sampling occasion 0.75 ml blood was taken 5 from each animal. One third (0.25 ml) of the blood sample was collected in a microtainer tube containing EDTA (Beckton and Dickinson) for analysis of glucose. Serum was prepared from the remaining blood sample (0.5 ml) in accordance with standard methods and analysed for urea.
Urea in serum was determined spectrophotometrically by using the Urea UV Uni-Kit II (Roche) with an autoanalyzer (Cobas Mira, Roche Co, Basel, Switzerland). Urea values were expressed in mmol/l. The total nitrogen content in urine was determined with the aid of the Antek Pyro-Chemilumicence Nitrogen System. The apparatus used comprised the Antek 7000N nitrogen analyser with Liquid Auto Sampler 736-2 and a pyrolysis tube with a ceramic liner (Antek Instruments Inc., Houston, Tex., U.S.A.). The frozen urinary samples were thawed and diluted 1:100 with 0.1 M HCl and then analysed. The urinary nitrogen values were then calculated as mg nitrogen excreted.
Total nitrogen in faeces was determined by an established Kjeldahl method (Kjeltec System, Tecator AB, Halsingborg, Sweden). The frozen faecal samples were thawed and dried in an oven at 60° C. overnight. The weight of the dried sample was noted and the sample then ground. 0.20 g of the milled faecal sample was mixed in a Kjeldahl digestion tube with 10.0 ml of concentrated sulphuric acid. 2.0 ml of a 30% solution of H2 O2 (30% Perhydrol, Merck, Darmstadt, Germany) was added and mixed carefully.

[2] = tested on: Male Sprague-Dawley rats; assay: Example 1: dexamethasone-treated rats infused with saline, rhGH or rhIGF-I; body weight gain and nitrogen retention; assay type: in vivo, rat; settings: for Retention of nitrogen (nitrogen balance): 8 days infusion with Dex, rhIGF-I 500 per day vs saline or rhGH
Protocol: On day zero the rats were anaesthetized intraperitoneally with 0.4 ml per 100 g body weight of a mixture of Rompun (20 mg·ml^-1), Ketalar (50 mg·ml^-1) and Saline (0.9%) in 1:2:3 volume proportions. The hair on the back of the rats was shaved off and the exposed skin carefully washed with 0.05% chlorhexidine (Pharmacia, Stockholm, Sweden) and 0.4% jodopax (Molnlycke, Goteborg, Sweden), both being diluted in 70% alcohol. Two mutually parallel incisions, each of 15 mm in length, were then made along the dorsal midline. The incisions penetrated the epidermis, dermis and subcutaneous muscle but left the deep fascia intact. Two subcutaneous pockets were made on both sides of the incisions by separating the subcutaneous muscle from the deep fascia. One (Exp. I) or two (Exp. 2) mini-pumps were implanted in each pocket. The wounds were closed with sutures 4-0 Johnson & Johnson). Osmotic mini-pumps (Alzet 2001, Alza Corporation, Palo Alto, USA) releasing 1 μl·h^-1 for 8 days were used for continuous delivery of hormones and Dex to the animals. The pumps were filled to a volume of 0.22 ml with solutions of rhGH (14.4 mg·ml^-1, Genotropin®, Pharmacia), rhIGF-I (20 mg·ml^-1, Igef®, Pharmacia, Kabi Peptide Hormones, Stockholm, Sweden), insulin (1.57 mg/ml, Actrapid®, Novo, Copenhagen, Denmark), Dex (1.04 mg·ml^-1, Decadron, Merck Sharp & Dohme International, […], USA) or Saline (0.9%). Two (Example 1) or four (Example 2) pumps combined as described above were implanted in each rat. Implantation of the pumps was performed under strictly aseptic conditions. Total feed intake was registered throughout the full 8 day experimental period. Urine and faeces were collected daily, pooled and kept at -20° C. until analysed. Excreta was collected by housing the animals in individual metabolism cages that were specially designed for the separation of urine and faeces. In order to inhibit urease-activity in the urine, 1 ml of 5% sulphuric acid was pipetted every morning in the collection vessels. The 24 hour collections of urine were pooled individually for each treatment period and immediately frozen after the collection. Similarly, the samples of faeces were also pooled individually for each treatment period and kept frozen (-20° C.) until analysis. Urea in serum was determined spectrophotometrically by using the Urea UV Uni-Kit II (Roche) with an autoanalyzer (Cobas Mira, Roche Co, Basel, Switzerland). Urea values were expressed in mmol/l. The total nitrogen content in urine was determined with the aid of the Antek Pyro-Chemilumicence Nitrogen System. The apparatus used comprised the […] nitrogen analyser with Liquid Auto Sampler 736-2 and a pyrolysis tube with a ceramic […] Instruments Inc., Houston, Tex., U.S.A.). The frozen urinary samples were thawed and diluted 1:100 with 0.1 M HCl and then analysed. The urinary nitrogen values were then calculated as mg nitrogen excreted. Total nitrogen in faeces was determined by an established Kjeldahl method (Kjeltec System, Tecator AB, Halsingborg, Sweden). The frozen faecal samples were thawed and dried in an oven at 60° C. overnight. The weight of the dried sample was noted and the sample then ground. 0.20 g of the milled faecal sample was mixed in a Kjeldahl digestion tube with 10.0 ml of concentrated sulphuric acid. 2.0 ml of a 30% solution of H2 O2 (30% Perhydrol, Merck, Darmstadt, Germany) was added and mixed carefully. One catalyst tablet (Kjeltabs C A, Thompson & Capper, Runcom, Cheshire, UK) was added to each sample. The mixture was digested at 380° C. for at least one hour or until complete bleaching of the sample was achieved. […] The faecal nitrogen values were calculated as mg nitrogen excreted. Data were subjected to a one-way analysis of variance in which the effect of treatment was considered the prime source of variation. Calculations were executed by the GLM procedure of the SAS program (SAS 1985). […]

[3] = 8 days s.c. mini-pump infusion, at every Dex dose (26, 13 or 6.5 per day), rhGH 360, rhIGF-I 500 per day, vs saline

C[C@@H]1C[C@H]2[C@@H]3CCC4=CC(=O)C=C[C@]4(C)[C@@]3(F)[C@@H](O)C[C@]2(C)[C@@]1(O)C(=O)CO [Dex, dexamethasone, reference compound]
Feed intake / feed consumption (in words) [1]: generally decreased feed intake
Nitrogen balance / nitrogen wasting induced by dexamethasone (in words) [1]: decrease the nitrogen balance dramatically
Relative nitrogen retention (retained N/digested N x 100) [1]: 7.2%
Reduction of feed intake ([1]; Dex 26 per day, 8 days): approximately 20%
Body weight gain [2, 3]: general decrease with increased Dex dose

insulin: insulin (Actrapid, Novo)
Nitrogen balance / nitrogen wasting induced by dexamethasone (in words) [1]: without effect
Relative nitrogen retention (retained N/digested N x 100) [1]: 11.9%

rhGH: recombinant human growth hormone (Genotropin, Pharmacia)
Nitrogen balance / nitrogen wasting induced by dexamethasone (in words) [1]: not found to counteract the nitrogen wasting induced by dexamethasone
Nitrogen balance / nitrogen wasting induced by dexamethasone (in words) ([1]; listed as GH): without effect
Relative nitrogen retention (retained N/digested N x 100) [1]: 3.8%
Retention of nitrogen (nitrogen balance) [2]: followed the same pattern
Body weight gain ([2]; 8 days infusion, at the medium and high Dex infusion dose): negative values for body weight gain
Body weight gain [2, 3]: the opposite effect

rhIGF-I: recombinant human insulin-like growth factor I (Igef, Pharmacia)
Feed intake / feed consumption (in words) [1]: slightly stimulated feed consumption
Nitrogen balance / nitrogen wasting induced by dexamethasone (in words) [1]: decreased significantly the wasting of nitrogen induced by dexamethasone
Relative nitrogen retention (retained N/digested N x 100) [1]: 23.0%
Retention of nitrogen (nitrogen balance) [2]: significantly (p<0.05) higher; also recorded: followed the same pattern
Body weight gain [2, 3]: significantly (p<0.05) higher weight gain in comparison with saline; also recorded: significantly (p<0.05) increased
